For test [1], the target named is T1, acyl-CoA: cholesterol acyltransferase (ACAT) (Oryctolagus cuniculus, UniProt G1SFD9).
T1 construct: tissue preparation containing rabbit intestinal microsomes; from tissue; host or cells: rabbit intestinal microsomes
T1 sequence (G1SFD9 1-524): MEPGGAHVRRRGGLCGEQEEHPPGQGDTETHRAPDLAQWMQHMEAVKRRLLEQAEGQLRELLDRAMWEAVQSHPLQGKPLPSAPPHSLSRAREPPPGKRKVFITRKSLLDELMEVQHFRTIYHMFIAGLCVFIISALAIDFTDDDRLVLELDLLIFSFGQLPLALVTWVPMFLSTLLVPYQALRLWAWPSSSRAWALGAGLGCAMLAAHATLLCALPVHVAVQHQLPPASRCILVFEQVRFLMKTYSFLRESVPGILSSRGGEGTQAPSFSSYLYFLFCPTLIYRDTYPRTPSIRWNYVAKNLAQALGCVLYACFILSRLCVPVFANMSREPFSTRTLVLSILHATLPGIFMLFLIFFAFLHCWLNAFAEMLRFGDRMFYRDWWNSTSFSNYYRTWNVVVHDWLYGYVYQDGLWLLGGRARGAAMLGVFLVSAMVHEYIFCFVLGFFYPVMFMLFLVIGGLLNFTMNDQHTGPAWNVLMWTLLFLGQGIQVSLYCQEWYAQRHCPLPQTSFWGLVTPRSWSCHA
In words: in vitro ACAT inhibition (radiolabeled cholesterol oleate formed from radiolabeled oleic acid, rabbit intestinal microsomes). In kind it is biochemical. The conditions noted are these: read-out: IC50 (concentration of test compound required to inhibit the activity of the enzyme by 50%). The procedure:
The ability of representative compounds of the present invention to inhibit ACAT was measured using an in vitro test more fully described in Field, F. J. and Salone, R. G., Biochemica et Biophysica, 712:557-570 (1982). The test assesses the ability of a test compound to inhibit the acylation of cholesterol by oleic acid by measuring the amount of radiolabeled cholesterol oleate formed from radiolabeled oleic acid in a tissue preparation containing rabbit intestinal microsomes.
The data appear in Table I where they are expressed in IC50 values; i.e., the concentration of test compound required to inhibit the activity of the enzyme by 50%.

Test [2] in a line: in vivo screen designated APCC (total cholesterol in rats on PCC diet). Further details: species or system male Sprague-Dawley rats. To be noted: rat, 50 (mg/dl), N/C means no change. The source says: In one in vivo screen designated APCC, male Sprague-Dawley rats (200 to 225 g) were randomly divided into treatment groups and dosed at 4 PM with either vehicle (CMC/Tween) or suspensions of compounds in vehicle. The normal chow diet was then replaced with the PCC diet (5.5% peanut oil, 1.5% cholesterol, and 0.5% cholic acid). The rats consumed this diet a libitum during the night and were sacrificed at 8 AM to obtain blood samples for cholesterol analysis using standard procedures. Statistical differences between mean cholesterol values for the same vehicle were determined using analysis of variance followed by Fisher's least significant test. The results of this trail for representative compounds of the present invention appear in Table II wherein percent change means the difference in total cholesterol between control, and the drug-treated animals, and the (mg/dL) is the milligrams of compound per deciliter of vehicle administered. The milligrams are reflected parenthetically.

For test [3] the following is noted: J. Medicinal Chemistry 22, 28-32 (1979); cited from earlier work.

We go through 18 compounds from patent US5073565A, “Tetrazole ureas and thioureas and their use as ACAT inhibitors” (Warner-Lambert Company, priority 1990, dated 1991).

Structures are written as SMILES.

Consider `CC(C)c1cccc(C(C)C)c1NC(=O)Nc1nnn(CCCCCCCCCCO)n1` [Example 15, N-[2,6-Bis(1-methylethyl)phenyl]-N'-[2-(10-hydroxy-decyl)-2H-tetrazol-5-yl]urea], for which the IC50 in test [1] amounted to 72 nM.
For `CCCCCCCCCCCn1nnc(NC(=O)Nc2c(C(C)C)cccc2C(C)C)n1` [Example 10, N-[2,6-Bis(1-methylethyl)-phenyl]-N'-(2-undecyl-2H-tetrazol-5-yl)urea], in test [1], the IC50 was found to be 9 nM.
Same read-out and setting: to `CCCCCCCCCCCCCCCCn1nnc(NC(=O)Nc2c(C(C)C)cccc2C(C)C)n1` [Example 6, N-[2,6-Bis(1-methylethyl)-phenyl]-N'-(2-hexadecyl-2H-tetrazol-5-yl)urea] belongs 57 nM.
Same read-out and setting: to `CCCCCCCCn1nnc(NC(=O)Nc2c(C(C)C)cccc2C(C)C)n1` [Example 22, N-[2,6-Bis(1-methylethyl)phenyl]-N'-(2-octyl-2H-tetrazol-5-yl)urea] belongs 59 nM; to `CC(C)c1cccc(C(C)C)c1NC(=O)Nc1nnnn1CCc1ccccc1` [Example 21], 327 nM.
The same measure, in the same setting: for `CCCCCCCCCCCCCCn1nnc(NC(=O)Nc2c(C(C)C)cccc2C(C)C)n1` [Example 3, N-[2,6-bis(1-methylethyl)phenyl]-N'-(2-tetradecyl-2H-tetrazol-5-yl)urea] the value was 12 nM; for `CCCCCCn1nnc(NC(=O)Nc2c(C(C)C)cccc2C(C)C)n1` [Example 23, N-[2,6-Bis(1-methylethyl)phenyl]-N'-(2-hexyl-2H-tetrazol-5-yl)urea], 73 nM.
In the case of `CC(C)c1cccc(C(C)C)c1NC(=O)Nc1nnn(Cc2ccccc2)n1` [Example 17, N-[2,6-Bis(1-methylethyl)phenyl]-N'-(2-phenylmethyl-2H-tetrazol-5-yl)urea], the IC50 in test [1] turned out to be 370 nM. In addition, the “% Change (difference in total cholesterol between control and drug-treated animals)” value in test [2] was “N/C”.
Take `CC(C)c1cccc(C(C)C)c1NC(=O)Nc1nnn(CCCCCCCCCCOC2CCCCO2)n1` (stereo not shown) [Example 7]: the IC50 in test [1] is 12 nM.
With `CC(C)c1cccc(C(C)C)c1NC(=O)Nc1nnn(CCCCCCCCCCCCO)n1` [1 (d), N-[2,6-Bis(1-methylethyl)phenyl]-N'-[2-(12-hydroxy-dodecyl)-2H-tetrazol-5-yl] urea], in test [1], the IC50 is 21 nM.
Same read-out and setting: for `CCCCn1nnc(NC(=O)Nc2c(C(C)C)cccc2C(C)C)n1` [Example 11, N-[2,6-Bis(1-methylethyl)-phenyl]-N'-(2-butyl-2H-tetrazol-5-yl)urea] the value was 92 nM.
On the same count and under the same terms, to `CCCCCCCCCCCCCn1nnc(NC(=O)Nc2c(C(C)C)cccc2C(C)C)n1` [Example 4, N-[2,6-Bis(1-methylethyl)phenyl]-N'-(2-tridecyl-2H-tetrazol-5-yl)urea] belongs 9 nM; to `CC(C)c1cccc(C(C)C)c1NC(=O)Nc1nnnn1Cc1ccccc1` [Example 19, N-[2,6-Bis(1-methylethyl)phenyl]-N'-(1-phenylmethyl-1H-tetrazol-5-yl)urea], 300 nM.
Still for that read-out and setting: for `CC(C)c1cccc(C(C)C)c1NC(=O)Nc1nnn(CCCCCCCCCCCCOC2CCCCO2)n1` (stereo not shown) [1 (c)] the value was 36 nM; for `CCCCCCCCCCCCn1nnc(NC(=O)Nc2c(C(C)C)cccc2C(C)C)n1` [Example 5, N-[2,6-Bis(1-methylethyl)-phenyl]-N'-(2-dodecyl-2H-tetrazol-5-yl)urea], 14 nM.
For the compound `CCOC(=O)c1ccc(NC(=O)Nc2nnn[nH]2)cc1` [N-(4-ethoxycarbonylphenyl)-N'-tetrazol-5-yl-urea], in test [3], the antileukemic data entry was “inactive”.
Regarding `CCCCCCCCCCn1nnnc1NC(=O)Nc1c(C(C)C)cccc1C(C)C` [Example 20], in test [1], the IC50 was 180 nM.
On the same count and under the same terms, to `CCCCCCCCCCn1nnc(NC(=O)Nc2c(C(C)C)cccc2C(C)C)n1` [Example 24, N-[2,6-Bis(1-methylethyl)phenyl]-N'-(2-decyl-2H-tetrazol-5-yl)urea] belongs 14 nM.
